# The supplement of paper PMC11208160
# Experiment: recombinant barcode read abundance after kanamycin selection (control-corrected) (log10(CPM+1)); higher = more efficient recombination; sequences stand for … in AGTGCAGAGAAAATCGGCCAGTTTTCTCTGCCTGCAGTCCGCATGCCGT…AGATTTATGCAGCGGACTGCCTTTCTCCCAAAGTGATAAACCGGACAGTATCATGGACCGGTTTTCCCGGTAATCCGTATTTGCAAGGTTGGTTTCACT; site = the 11-nt target
# Method in brief: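 Targets were screened in pooled form in E. coli against IS621 bridge RNA target-binding loops. Recombination efficiency is based on barcode counts at recombinant junctions in counts per million, averaged and corrected for the control. Numbers are shown as log10(CPM+1), with duplicate plates on chloramphenicol/ampicillin LB agar (control) or chloramphenicol/ampicillin/kanamycin with 0.1 mM IPTG.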
# 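Note: IS621 recombinase and bridge RNA in Escherichia coli cells.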
row,Sequence,recombinant barcode read abundance (log10)
1,CCACTACCTTGGGTTCTAACCTGTTGCCT (site CCACTGCCTAG),0.0373
2,CCACTACCTTGGGTTCTAACCTGTTGCCT (site CCACTTCCTAG),0.0936
3,CCACTGTCTTGGGTTCTAACCTGTTGCCT (site CCACAGTCTAG),0.806
4,CCACTGTCTTGGGTTCTAACCTGTTGCCT (site CCACCGTCTAG),0.0386
5,CCACTGTCTTGGGTTCTAACCTGTTGCCT (site CCACGGTCTAG),0.0729
6,CCACTGTCTTGGGTTCTAACCTGTTGCCT (site CCACTGTCTAG),0.632
7,CCAGAGTCTTGGGTTCTAACCTGTTGCCA (site CCAGAGTCTCG),0
8,CCAGAGTCTTGGGTTCTAACCTGTTGCCA (site CCAGAGTCTTG),1.22
9,CCAGCAGCTTGGGTTCTAACCTGTTGCCT (site CCAGAAGCTAG),0.0762
10,CCAGCAGCTTGGGTTCTAACCTGTTGCCT (site CCAGCAGCTAG),0.675
11,CCAGCAGCTTGGGTTCTAACCTGTTGCCT (site CCAGGAGCTAG),0.0858
12,CCAGCAGCTTGGGTTCTAACCTGTTGCCT (site CCAGTAGCTAG),0.76
13,CCAGGTCCTTGGGTTCTAACCTGTTGCGT (site CCAGGTCCTAC),2.45
14,CCAGGTCCTTGGGTTCTAACCTGTTGCGT (site CCAGGTCCTAT),1.81
15,CCATACGCTTGGGTTCTAACCTGTTGCCT (site CCATACGCTAG),0.178
16,CCATACGCTTGGGTTCTAACCTGTTGCCT (site CGAGACGCTAG),0.189
17,CCATCAACTTGGGTTCTAACCTGTTGCCT (site CCATCAACTAG),0.0699
18,CCATCAACTTGGGTTCTAACCTGTTGCCT (site CCATGAACTTG),0.0637
19,CCATCTCCTTGGGTTCTAACCTGTTGCCT (site ACATCTCCTAG),0.0982
20,CCATCTCCTTGGGTTCTAACCTGTTGCCT (site CCATCTCCTAG),0.492
21,CCATCTCCTTGGGTTCTAACCTGTTGCCT (site GCATCTCCTAG),0.127
22,CCATCTCCTTGGGTTCTAACCTGTTGCCT (site TCATCTCCTAG),0.0439

row,Sequence,recombinant barcode read abundance (log10)
1,CCGAAGCCTTGGGTTCTAACCTGTTGCCT (site CCGAAGCCTAG),1.01
2,CCGAAGCCTTGGGTTCTAACCTGTTGCCT (site CCGCAGCCTAG),0.256
3,CCGAAGCCTTGGGTTCTAACCTGTTGCCT (site CCGGAGCCTAG),0.144
4,CCGAAGCCTTGGGTTCTAACCTGTTGCCT (site CCGTAGCCTAG),0.143
5,CCGAATGCTTGGGTTCTAACCTGTTGCCT (site CCGAATGCTAG),0.188
6,CCGAATGCTTGGGTTCTAACCTGTTGCCT (site CCGCATGCTAG),0.0438
7,CCGAATGCTTGGGTTCTAACCTGTTGCCT (site CCGGATGCTAG),0.144
8,CCGAATGCTTGGGTTCTAACCTGTTGCCT (site CCGTATGCTAG),0.155
9,CCGATCACTTGGGTTCTAACCTGTTGCCT (site CCGATCACTAG),1.14
10,CCGATCACTTGGGTTCTAACCTGTTGCCT (site CGTATCACTAG),0.034
11,CCGCAGACTTGGGTTCTAACCTGTTGCTT (site CCGCAGACTAA),1.33
12,CCGCAGACTTGGGTTCTAACCTGTTGCTT (site CCGCGGACTAA),0.013
13,CCGCCCTCTTGGGTTCTAACCTGTTGCTT (site CAGCCCTCTTA),0.586
14,CCGCCCTCTTGGGTTCTAACCTGTTGCTT (site CCGCCCTCTAA),0.291
15,CCGCGCACTTGGGTTCTAACCTGTTGCCT (site CCGCGCACTAG),0.397
16,CCGCGCACTTGGGTTCTAACCTGTTGCCT (site CCGCGCTCTAG),0.206
17,CCGCGTGCTTGGGTTCTAACCTGTTGCCT (site CAGCGTGCTAG),0.161
18,CCGCGTGCTTGGGTTCTAACCTGTTGCCT (site CCGCGTGCTAG),0.0933
19,CCGCGTGCTTGGGTTCTAACCTGTTGCCT (site CGGCGTGCTAG),0.523
20,CCGCGTGCTTGGGTTCTAACCTGTTGCCT (site CTGCGTGCTAG),0.0444
21,CCGCTACCTTGGGTTCTAACCTGTTGCGG (site CCGCTACCTCC),0.474
22,CCGCTACCTTGGGTTCTAACCTGTTGCGG (site TCGCTAGCTCC),0.0965

row,Sequence,recombinant barcode read abundance (log10)
1,CCGTATGCTTGGGTTCTAACCTGTTGCCT (site CCGAATGCTAG),0.234
2,CCGTATGCTTGGGTTCTAACCTGTTGCCT (site CCGCATGCTAG),0.104
3,CCGTATGCTTGGGTTCTAACCTGTTGCCT (site CCGGATGCTAG),0.0205
4,CCGTATGCTTGGGTTCTAACCTGTTGCCT (site CCGTATGCTAG),0.168
5,CCGTCACCTTGGGTTCTAACCTGTTGCCT (site ACGTCACCTAG),0.264
6,CCGTCACCTTGGGTTCTAACCTGTTGCCT (site CCGTCACCTAG),1.29
7,CCGTCACCTTGGGTTCTAACCTGTTGCCT (site GCGTCACCTAG),0.0965
8,CCGTCACCTTGGGTTCTAACCTGTTGCCT (site TCGTCACCTAG),0.0881
9,CCGTCCTCTTGGGTTCTAACCTGTTGCTG (site CAGTCCTCTCA),0.0234
10,CCGTCCTCTTGGGTTCTAACCTGTTGCTG (site CCGTCCTCTCA),1.01
11,CCGTCGACTTGGGTTCTAACCTGTTGCCT (site ACGTCCACTAG),0.0141
12,CCGTCGACTTGGGTTCTAACCTGTTGCCT (site CCGTCGACTAG),0.197
13,CCGTCTACTTGGGTTCTAACCTGTTGCTG (site CCGTCTACTAA),0.019
14,CCGTCTACTTGGGTTCTAACCTGTTGCTG (site CCGTCTACTCA),0.38
15,CCGTCTACTTGGGTTCTAACCTGTTGCTG (site CCGTCTACTGA),0.0602
16,CCGTCTACTTGGGTTCTAACCTGTTGCTG (site CCGTCTACTTA),0.111
17,CCGTGGACTTGGGTTCTAACCTGTTGCCT (site CCGTGGACTAG),1.75
18,CCGTGGACTTGGGTTCTAACCTGTTGCCT (site CCGTGGCCTAA),0.254
19,CCTAAGACTTGGGTTCTAACCTGTTGCCG (site CCTAAGACTAG),0.343
20,CCTAAGACTTGGGTTCTAACCTGTTGCCG (site CCTAAGACTCG),0.263
21,CCTAAGACTTGGGTTCTAACCTGTTGCCG (site CCTAAGACTGG),0.148
22,CCTAAGACTTGGGTTCTAACCTGTTGCCG (site CCTAAGACTTG),0.0897

row,Sequence,recombinant barcode read abundance (log10)
1,CCTAATGCTTGGGTTCTAACCTGTTGCCT (site CCAAAGGCTAG),0.0782
2,CCTAATGCTTGGGTTCTAACCTGTTGCCT (site CCTAATGCTAG),0.0345
3,CCTACCGCTTGGGTTCTAACCTGTTGCTT (site CCTACCGCTAA),0.424
4,CCTACCGCTTGGGTTCTAACCTGTTGCTT (site CGTACCGCTAG),0.0456
5,CCTCACTCTTGGGTTCTAACCTGTTGCGG (site CCTCACTCTCC),1.66
6,CCTCACTCTTGGGTTCTAACCTGTTGCGG (site CCTCAGTCTTC),0
7,CCTCGCACTTGGGTTCTAACCTGTTGCCT (site CATCGCACTAG),0.0533
8,CCTCGCACTTGGGTTCTAACCTGTTGCCT (site CCTCGCACTAG),0.458
9,CCTCGCACTTGGGTTCTAACCTGTTGCCT (site CGTCGCACTAG),0.133
10,CCTCGCACTTGGGTTCTAACCTGTTGCCT (site CTTCGCACTAG),0.0293
11,CCTCGGGCTTGGGTTCTAACCTGTTGCAG (site CATCGGGCTCT),0.0896
12,CCTCGGGCTTGGGTTCTAACCTGTTGCAG (site CCTCGGGCTCT),1.23
13,CCTCGGGCTTGGGTTCTAACCTGTTGCAG (site CGTCGGGCTCT),0.011
14,CCTCGGGCTTGGGTTCTAACCTGTTGCAG (site CTTCGGGCTCT),0.101
15,CCTGACTCTTGGGTTCTAACCTGTTGCAC (site CCTGACTCTGT),2.05
16,CCTGACTCTTGGGTTCTAACCTGTTGCAC (site GAACTGCCTAA),0.0359
17,CCTGACTCTTGGGTTCTAACCTGTTGCAT (site CCTGACTCTAT),2.19
18,CCTGACTCTTGGGTTCTAACCTGTTGCAT (site TAGTGGCCTTA),0.221
19,CCTGAGACTTGGGTTCTAACCTGTTGCAG (site CCTGAGACTCT),1.37
20,CCTGAGACTTGGGTTCTAACCTGTTGCAG (site CCTGGCACTCT),0.297
